# Measurements reported in patent US10414808B2 (priority 2012, dated 2019).
# Where two headings read alike, the source gives them in different places.
# What was measured:
# hNav1.7 channel = hNav1.7 channel (Homo sapiens, UniProt Q15858, W1161R); type: cell-based
# Nav1.7 = Nav1.7 (Homo sapiens, UniProt Q15858, W1161R); assay: cell-based
# Nav1.2 = Nav1.2 (Homo sapiens, UniProt Q99250); assay: cell-based
# [1] = test system: mouse model of inflammatory pain (100% CFA); conditions: in vivo
# [2] = test system: mouse model of CFA-induced inflammatory pain; conditions: in vivo
# [3] = test system: rat model of nociceptive pain; conditions: in vivo
# in vivo = conditions: mouse, sc
# [4] = test system: rat model of monoarthritis induced by 50% intraplantar CFA; conditions: in vivo
# [5] = test system: mouse spared nerve injury model of neuropathic pain; conditions: in vivo
# [6] = test system: rodent models of acute and inflammatory pain; conditions: in vivo; cited from earlier work
# [7] = mouse, in vivo
# mice = conditions: mouse, in vivo
# Sequence of Nav1.7 (Q15858 whole entry W1161R, looked up): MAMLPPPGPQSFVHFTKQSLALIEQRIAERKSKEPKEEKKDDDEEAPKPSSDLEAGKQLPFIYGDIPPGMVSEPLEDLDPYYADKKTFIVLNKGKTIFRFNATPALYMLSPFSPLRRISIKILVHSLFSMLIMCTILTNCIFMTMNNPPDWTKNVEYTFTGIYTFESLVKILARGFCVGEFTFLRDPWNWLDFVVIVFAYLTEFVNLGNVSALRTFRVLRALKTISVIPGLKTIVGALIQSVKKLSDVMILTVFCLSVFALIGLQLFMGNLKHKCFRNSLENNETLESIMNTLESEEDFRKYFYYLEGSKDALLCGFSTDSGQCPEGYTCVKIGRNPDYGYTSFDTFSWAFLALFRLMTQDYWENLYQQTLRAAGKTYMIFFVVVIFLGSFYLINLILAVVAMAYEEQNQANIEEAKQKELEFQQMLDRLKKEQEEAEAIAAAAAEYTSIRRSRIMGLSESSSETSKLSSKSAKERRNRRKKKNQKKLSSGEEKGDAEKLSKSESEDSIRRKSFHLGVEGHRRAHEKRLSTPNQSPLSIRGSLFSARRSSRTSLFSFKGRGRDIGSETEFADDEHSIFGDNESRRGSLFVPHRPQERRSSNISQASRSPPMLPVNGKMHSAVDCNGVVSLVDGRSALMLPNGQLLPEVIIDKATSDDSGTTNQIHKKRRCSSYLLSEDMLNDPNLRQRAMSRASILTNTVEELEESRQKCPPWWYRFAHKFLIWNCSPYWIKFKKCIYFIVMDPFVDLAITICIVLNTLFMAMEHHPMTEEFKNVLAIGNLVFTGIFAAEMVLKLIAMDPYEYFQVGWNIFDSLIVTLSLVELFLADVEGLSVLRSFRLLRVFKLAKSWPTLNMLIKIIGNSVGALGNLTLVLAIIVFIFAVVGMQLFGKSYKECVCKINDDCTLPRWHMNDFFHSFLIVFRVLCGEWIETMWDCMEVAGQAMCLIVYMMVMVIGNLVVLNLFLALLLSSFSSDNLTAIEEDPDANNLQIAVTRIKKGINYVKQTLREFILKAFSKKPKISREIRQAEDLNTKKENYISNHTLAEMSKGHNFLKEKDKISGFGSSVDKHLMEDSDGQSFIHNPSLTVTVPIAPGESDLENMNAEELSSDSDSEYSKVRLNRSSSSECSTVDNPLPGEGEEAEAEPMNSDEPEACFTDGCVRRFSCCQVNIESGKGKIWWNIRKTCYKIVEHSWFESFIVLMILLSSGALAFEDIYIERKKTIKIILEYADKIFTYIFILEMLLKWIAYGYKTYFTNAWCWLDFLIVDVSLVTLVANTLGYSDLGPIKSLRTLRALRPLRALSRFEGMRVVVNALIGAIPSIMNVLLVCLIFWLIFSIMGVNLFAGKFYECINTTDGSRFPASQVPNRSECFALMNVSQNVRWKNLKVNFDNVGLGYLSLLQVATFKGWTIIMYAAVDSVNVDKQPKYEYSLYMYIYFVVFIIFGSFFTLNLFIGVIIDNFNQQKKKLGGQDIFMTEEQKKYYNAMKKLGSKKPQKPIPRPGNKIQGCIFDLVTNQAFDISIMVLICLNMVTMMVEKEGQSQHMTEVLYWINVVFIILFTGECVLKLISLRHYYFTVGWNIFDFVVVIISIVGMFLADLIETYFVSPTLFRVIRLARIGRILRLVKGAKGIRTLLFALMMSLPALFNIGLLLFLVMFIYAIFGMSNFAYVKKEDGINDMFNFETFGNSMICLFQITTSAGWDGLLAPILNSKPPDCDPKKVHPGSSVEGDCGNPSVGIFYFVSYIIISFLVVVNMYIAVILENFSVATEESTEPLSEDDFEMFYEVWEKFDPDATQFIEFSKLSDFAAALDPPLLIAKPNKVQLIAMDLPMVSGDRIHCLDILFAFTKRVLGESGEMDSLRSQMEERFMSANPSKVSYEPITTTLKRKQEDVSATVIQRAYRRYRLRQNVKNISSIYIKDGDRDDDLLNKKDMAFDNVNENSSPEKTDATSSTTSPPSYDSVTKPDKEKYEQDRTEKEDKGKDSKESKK
# Sequence of Nav1.2 (Q99250 whole entry, looked up): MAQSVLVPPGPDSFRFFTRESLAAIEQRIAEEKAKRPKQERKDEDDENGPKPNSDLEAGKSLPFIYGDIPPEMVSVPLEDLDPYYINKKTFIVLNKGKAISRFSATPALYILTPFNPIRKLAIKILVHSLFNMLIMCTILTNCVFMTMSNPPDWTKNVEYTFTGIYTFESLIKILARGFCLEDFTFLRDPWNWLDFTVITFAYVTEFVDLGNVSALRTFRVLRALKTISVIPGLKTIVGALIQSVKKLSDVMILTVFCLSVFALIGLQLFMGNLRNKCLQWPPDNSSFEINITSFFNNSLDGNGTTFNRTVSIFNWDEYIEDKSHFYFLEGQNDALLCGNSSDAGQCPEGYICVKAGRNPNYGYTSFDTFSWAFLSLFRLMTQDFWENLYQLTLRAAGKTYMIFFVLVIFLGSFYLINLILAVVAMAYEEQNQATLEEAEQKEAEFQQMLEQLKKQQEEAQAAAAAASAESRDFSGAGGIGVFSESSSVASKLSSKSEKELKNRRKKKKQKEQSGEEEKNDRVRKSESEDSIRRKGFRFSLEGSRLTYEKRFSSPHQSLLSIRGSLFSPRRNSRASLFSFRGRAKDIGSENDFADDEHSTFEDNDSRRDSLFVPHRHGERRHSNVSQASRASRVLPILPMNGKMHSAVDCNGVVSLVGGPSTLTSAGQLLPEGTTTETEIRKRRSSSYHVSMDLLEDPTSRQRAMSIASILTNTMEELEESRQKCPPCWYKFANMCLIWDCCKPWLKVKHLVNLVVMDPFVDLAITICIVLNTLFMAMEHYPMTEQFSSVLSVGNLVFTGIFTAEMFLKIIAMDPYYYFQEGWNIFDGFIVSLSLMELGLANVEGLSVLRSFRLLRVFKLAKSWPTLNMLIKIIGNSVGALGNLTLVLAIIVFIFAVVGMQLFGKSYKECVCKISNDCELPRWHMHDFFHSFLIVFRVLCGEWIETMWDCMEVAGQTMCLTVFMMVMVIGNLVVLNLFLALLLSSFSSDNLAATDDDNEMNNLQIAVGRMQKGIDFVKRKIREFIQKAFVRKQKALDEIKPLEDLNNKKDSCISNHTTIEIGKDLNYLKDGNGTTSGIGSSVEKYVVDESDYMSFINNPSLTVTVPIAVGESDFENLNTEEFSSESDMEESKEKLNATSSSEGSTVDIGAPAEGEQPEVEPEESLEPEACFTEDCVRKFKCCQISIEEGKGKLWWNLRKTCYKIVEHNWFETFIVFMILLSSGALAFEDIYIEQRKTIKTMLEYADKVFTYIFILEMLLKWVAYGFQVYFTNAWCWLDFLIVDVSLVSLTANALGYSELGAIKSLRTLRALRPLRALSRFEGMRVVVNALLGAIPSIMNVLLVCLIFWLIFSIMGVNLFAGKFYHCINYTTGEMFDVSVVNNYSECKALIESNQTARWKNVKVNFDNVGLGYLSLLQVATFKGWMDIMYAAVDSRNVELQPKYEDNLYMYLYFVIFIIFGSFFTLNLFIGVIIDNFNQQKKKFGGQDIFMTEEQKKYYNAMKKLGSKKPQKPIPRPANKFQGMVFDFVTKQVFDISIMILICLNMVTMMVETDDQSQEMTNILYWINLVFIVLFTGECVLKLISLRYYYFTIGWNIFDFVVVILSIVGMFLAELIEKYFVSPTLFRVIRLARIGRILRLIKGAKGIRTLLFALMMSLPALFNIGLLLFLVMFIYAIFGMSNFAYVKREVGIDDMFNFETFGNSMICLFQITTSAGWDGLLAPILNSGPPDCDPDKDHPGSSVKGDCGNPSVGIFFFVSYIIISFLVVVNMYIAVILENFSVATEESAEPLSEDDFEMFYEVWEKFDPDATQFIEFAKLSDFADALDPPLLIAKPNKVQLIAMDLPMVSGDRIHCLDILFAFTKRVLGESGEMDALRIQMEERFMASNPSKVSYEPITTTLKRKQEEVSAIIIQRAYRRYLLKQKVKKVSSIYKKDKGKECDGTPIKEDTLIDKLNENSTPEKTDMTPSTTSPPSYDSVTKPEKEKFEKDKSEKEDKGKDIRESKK
smiles,measurement,setting,value
CC[C@H](C)[C@H](NC(=O)[C@H](CCC(N)=O)NC(=O)[C@H](Cc1ccc(O)cc1)NC(=O)[C@H](CCCCN)NC(=O)[C@@H]1CSSC[C@@H]2NC(=O)[C@H](CCC(N)=O)NC(=O)[C@H](CC(=O)O)NC(=O)[C@H](CC(N)=O)NC(=O)[C@H](CO)NC(=O)[C@@H]3CCCN3C(=O)[C@H](CC(N)=O)NC(=O)[C@@H]3CSSC[C@H](NC(=O)[C@H](C(C)C)NC(=O)[C@H](CC(C)C)NC(=O)[C@H](CCCCN)NC(=O)[C@H](CO)NC(=O)[C@H](CO)NC(=O)[C@H](CCCCN)NC(=O)[C@H](CSSC[C@H](NC(=O)[C@H](CCC(=O)O)NC(=O)[C@@H]4CCCN4C(=O)CN)C(=O)N[C@@H](CC(C)C)C(=O)N[C@@H](CCC(=O)O)C(=O)N[C@@H]([C@@H](C)CC)C(=O)N[C@@H](Cc4ccccc4)C(=O)N[C@@H](CCCCN)C(=O)N[C@@H](C)C(=O)N3)NC2=O)C(=O)N[C@@H](CO)C(=O)N[C@@H](CCCNC(=N)N)C(=O)N[C@@H](CCCCN)C(=O)N[C@@H]([C@@H](C)O)C(=O)N[C@@H](CCCNC(=N)N)C(=O)N[C@@H](Cc2c[nH]c3ccccc23)C(=O)N1)C(=O)NCC(=O)N[C@@H](CCCCN)C(=O)O [Recombinant Huwentoxin-IV],ratio of IC50 for Nav1.2 to IC50 for Nav1.7,hNav1.7 channel,about 2.143
CC[C@H](C)[C@H](NC(=O)[C@H](CCC(N)=O)NC(=O)[C@H](Cc1ccc(O)cc1)NC(=O)[C@H](CCCCN)NC(=O)[C@@H]1CSSC[C@@H]2NC(=O)[C@H](CCC(N)=O)NC(=O)[C@H](CC(=O)O)NC(=O)[C@H](CC(N)=O)NC(=O)[C@H](CO)NC(=O)[C@@H]3CCCN3C(=O)[C@H](CC(N)=O)NC(=O)[C@@H]3CSSC[C@H](NC(=O)[C@H](C(C)C)NC(=O)[C@H](CC(C)C)NC(=O)[C@H](CCCCN)NC(=O)[C@H](CO)NC(=O)[C@H](CO)NC(=O)[C@H](CCCCN)NC(=O)[C@H](CSSC[C@H](NC(=O)[C@H](C)NC(=O)[C@@H]4CCCN4C(=O)CN)C(=O)N[C@@H](CC(C)C)C(=O)N[C@@H](CCC(=O)O)C(=O)N[C@@H]([C@@H](C)CC)C(=O)N[C@@H](Cc4ccccc4)C(=O)N[C@@H](CCCCN)C(=O)N[C@@H](C)C(=O)N3)NC2=O)C(=O)N[C@@H](CO)C(=O)N[C@@H](CCCNC(=N)N)C(=O)N[C@@H](CCCCN)C(=O)N[C@@H]([C@@H](C)O)C(=O)N[C@@H](CCCNC(=N)N)C(=O)N[C@@H](Cc2c[nH]c3ccccc23)C(=O)N1)C(=O)NCC(=O)N[C@@H](CCCCN)C(=O)O [NV1D82 | 243],IC50,Nav1.7,40 nM
same,IC50,Nav1.2,50 nM
NCC1(CC(=O)O)CCCCC1 [gabapentin],CFA-induced tactile allodynia,"[1]; po, 150 mg/kg",reduced tactile allodynia albeit to a lesser extent than ProTx-II
CSCC[C@@H]1NC(=O)CNC(=O)[C@H](CCC(=O)O)NC(=O)[C@@H]2CSSC[C@H](NC(=O)[C@@H](N)Cc3ccc(O)cc3)C(=O)N[C@@H](CCC(N)=O)C(=O)N[C@@H](CCCCN)C(=O)N[C@@H](Cc3c[nH]c4ccccc34)C(=O)N[C@@H](CCSC)C(=O)N[C@@H](Cc3c[nH]c4ccccc34)C(=O)N[C@@H]([C@@H](C)O)C(=O)N[C@H]3CSSC[C@H](NC(=O)[C@H](C(C)C)NC1=O)C(=O)N[C@@H](CCCNC(=N)N)C(=O)N[C@@H](CC(C)C)C(=O)N[C@@H](Cc1c[nH]c4ccccc14)C(=O)N[C@H](C(=O)N[C@@H](CCCCN)C(=O)N[C@@H](CCCCN)C(=O)N[C@@H](CCCCN)C(=O)N[C@@H](CC(C)C)C(=O)N[C@@H](Cc1c[nH]c4ccccc14)C(=O)O)CSSC[C@H](NC(=O)[C@H](CCCCN)NC(=O)[C@H](CCCNC(=N)N)NC(=O)[C@H](CCC(=O)O)NC(=O)[C@H](CO)NC(=O)[C@H](CC(=O)O)NC3=O)C(=O)N2 [ProTx-II],motor impairment,[2],did not produce any obvious motor impairment
same,tactile threshold,[2],significantly increased
same,thermal threshold,[2],significantly increased
same,"AUC of gram thresholds (mean vehicle AUC subtracted), comparison between dose groups",[3],significantly different except between the 0.3 and 3 nmole doses
same,paw pressure threshold vs vehicle-treated animals,[3]; sc,increased thresholds significantly
same,"paw pressure threshold, dose dependence",[3]; sc,dose-dependent increase
same,level at time molar at 48 h,in vivo; 45.6 ug/day,50 nM
same,level at time molar at 120 h,in vivo; 45.6 ug/day,55 nM
same,level at time molar at 168 h,in vivo; 45.6 ug/day,83 nM
same,level at time molar at 72 h,in vivo; 228 ug/day,224 nM
same,tactile threshold vs vehicle injected animals,[4],significantly increased
same,efficacy in tactile (Von Frey) pain assay,[5],not efficacious
same,efficacy in rodent models of acute and inflammatory pain,[6],non-efficacious
same,Est Cp,[7],BLOQ
same,CFA-induced tactile allodynia,[1],profound anti-allodynic effect
same,Behav Obs,mice,normal
same,tolerability,mice,well tolerated
